Measurements published in ChEMBL document CHEMBL5528023, “Discovery of a CB2 and 5-HT1A receptor dual agonist for the treatment of depression and anxiety” (Eur J Med Chem, 2024).
Values after ≈ are worked out from the molar mass of the structure shown.

Tests used:
[1] = molecular target: T1, Cannabinoid receptor 2 (Homo sapiens, UniProt P34972); test: Agonist activity at human CB2 receptor expressed in CHO cells assessed as forskolin-stimulated cAMP formation preincubated with compound for 10 mins followed by forskolin induction and measured after 30 mins by HTRF analysis; assay type: functional, cell-based
[2] = molecular target: T2, Cannabinoid receptor 1 (Homo sapiens, UniProt P21554); test: Antagonist activity at human CB1 receptor expressed in CHO cells assessed as inhibition of forskolin-stimulated cAMP formation preincubated with compound for 10 mins followed by forskolin induction and measured after 30 mins by HTRF analysis; assay type: functional, cell-based
[3] = molecular target: T2, Cannabinoid receptor 1; test: Antagonist activity at human CB1 receptor expressed in CHO cells assessed as inhibition of forskolin-stimulated cAMP formation by measuring maximum inhibition preincubated with compound for 10 mins followed by forskolin induction and measured after 30 mins by HTRF analysis relative to control; assay type: functional, cell-based; conditions: filed as antagonist, time 40.0 min
[4] = AUClast in ICR mouse at 25 mg/kg, po measured upto 8 hrs by LC-MS/MS analysis; assay type: ADME, organism-based; conditions: in vivo
[5] = Half life in ICR mouse at 25 mg/kg, po measured upto 8 hrs by LC-MS/MS analysis; assay type: ADME, organism-based; conditions: in vivo
[6] = Tmax in ICR mouse at 25 mg/kg, po measured upto 8 hrs by LC-MS/MS analysis; assay type: ADME, organism-based; conditions: in vivo
[7] = Solubility of compound in phosphate buffer at pH 6.8 by HPLC analysis; assay type: physicochemical
[8] = Cmax in ICR mouse at 25 mg/kg, po measured upto 8 hrs by LC-MS/MS analysis; assay type: ADME, organism-based; conditions: in vivo
[9] = molecular target: T1, Cannabinoid receptor 2; test: Partial agonist activity at human CB2 receptor expressed in CHO cells assessed as forskolin-stimulated cAMP formation preincubated with compound for 10 mins followed by forskolin induction and measured after 30 mins by HTRF analysis; assay type: functional, cell-based
[10] = molecular target: T1, Cannabinoid receptor 2; test: Partial agonist activity at human CB2 receptor expressed in CHO cells assessed as forskolin-stimulated cAMP formation preincubated with compound for 10 mins followed by forskolin induction and measured after 30 mins by HTRF analysis relative to control; assay type: functional, cell-based; conditions: filed as partial agonist, time 40.0 min
[11] = tested on: Mus musculus; test: Anxiolytic activity against stress-induced hyperthermia in ip dosed ICR mouse assessed as reduction in delta temperature measured for 60 mins; assay type: functional, organism-based; conditions: dose 1-10 mg/kg
[12] = tested on: Mus musculus; test: Anxiolytic activity against stress-induced hyperthermia in ip dosed ICR mouse assessed as reduction in basal core rectal temperature measured for 60 mins; assay type: functional, organism-based; conditions: dose 3-10 mg/kg
[13] = molecular target: T1, Cannabinoid receptor 2; test: Agonist activity at CB2 receptor (unknown origin); assay type: functional

T1 sequence (P34972 whole entry): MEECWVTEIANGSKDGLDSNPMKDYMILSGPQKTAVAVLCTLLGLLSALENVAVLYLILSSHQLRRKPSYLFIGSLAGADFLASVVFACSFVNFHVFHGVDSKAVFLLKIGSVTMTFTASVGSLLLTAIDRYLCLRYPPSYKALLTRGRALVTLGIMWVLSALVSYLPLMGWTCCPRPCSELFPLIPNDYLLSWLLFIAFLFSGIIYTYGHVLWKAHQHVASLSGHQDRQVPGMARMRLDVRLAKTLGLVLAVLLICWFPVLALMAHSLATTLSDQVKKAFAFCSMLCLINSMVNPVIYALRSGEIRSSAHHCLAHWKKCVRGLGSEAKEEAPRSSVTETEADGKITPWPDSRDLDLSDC
T2 sequence (P21554 whole entry): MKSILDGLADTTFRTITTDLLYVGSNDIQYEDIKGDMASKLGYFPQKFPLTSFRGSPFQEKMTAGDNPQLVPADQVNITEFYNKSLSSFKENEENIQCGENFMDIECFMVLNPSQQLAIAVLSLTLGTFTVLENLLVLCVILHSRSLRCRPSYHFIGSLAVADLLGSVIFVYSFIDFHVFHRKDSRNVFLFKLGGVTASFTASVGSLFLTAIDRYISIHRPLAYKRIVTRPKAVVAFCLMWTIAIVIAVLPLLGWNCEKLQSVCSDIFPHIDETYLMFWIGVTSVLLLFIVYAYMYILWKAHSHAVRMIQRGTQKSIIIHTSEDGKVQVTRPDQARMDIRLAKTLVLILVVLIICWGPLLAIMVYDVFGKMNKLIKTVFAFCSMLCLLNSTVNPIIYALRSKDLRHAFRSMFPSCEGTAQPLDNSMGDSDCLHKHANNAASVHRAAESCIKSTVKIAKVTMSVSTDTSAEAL

SMILES | EC50 [1] | IC50 [2] | Imax [3] | EC50 [9] | Emax [10] | also measured
C=C(C)[C@@H]1CCC(C)=C[C@H]1c1c(O)cc(C2CC2)c(C(=O)NC)c1O | > 10 µM | > 10 µM |  |  |  | 
C=C(C)[C@@H]1CCC(C)=C[C@H]1c1c(O)cc(C)cc1O | > 10 µM | 6.3 µM | 115% |  |  | 
C=C(C)[C@@H]1CCC(C)=C[C@H]1c1c(O)cc(CCCCC)c(C(=O)N(C)C)c1O |  | 6.9 µM | 88.9% | 1.01 µM | 73.6% | AUC(0-t) at 8 h [4]: 26.3 ng·h/mL; half-life [5]: 1.7 h; Tmax [6]: 0.4 h; solubility [7]: 3 µg/mL (≈ 7.78 µM); Cmax [8]: 22.2 ng/mL
CN1C(=O)CN=C(c2ccccc2)c2cc(Cl)ccc21 |  |  |  |  |  | Activity [11]: Dose-Dependent Effect; Activity [12]: Dose-Dependent Effect
C=C(C)[C@@H]1CCC(C)=C[C@H]1c1c(O)cc(C2CCCC2)cc1O |  |  |  | 0.113 µM | 76.3% | AUC(0-t) at 8 h [4]: 1080 ng·h/mL; half-life [5]: 1.8 h; Tmax [6]: 1 h; Cmax [8]: 514 ng/mL
C=C(C)[C@@H]1CCC(C)=C[C@H]1c1c(O)cc(C2(CCCC)CC2)c(C(=O)N(C)C)c1O |  | 2.7 µM | 87.2% | 0.755 µM | 47.2% | AUC(0-t) at 8 h [4]: 115 ng·h/mL; half-life [5]: 1.7 h; Tmax [6]: 0.7 h; Cmax [8]: 62.7 ng/mL
C=C(C)[C@@H]1CCC(C)=C[C@H]1c1c(O)cc(C(C)C)cc1O | > 0.01 µM | 0.018 µM | 94% |  |  | 
C=C(C)[C@@H]1CCC(C)=C[C@H]1c1c(O)cc(-c2ccccn2)cc1O | > 0.01 µM | 6.3 µM | 92.1% |  |  | 
C=C(C)[C@@H]1CCC(C)=C[C@H]1c1c(O)cc(C(C)(C)CCCC)c(C(=O)NC)c1O | > 10 µM | 4.4 µM | 104% |  |  | 
Cc1ccc(CC2CN(C(=O)C3C(C)(C)[C@@H]4CC[C@]3(C)C4)N=C2c2ccc(Cl)c(C)c2)cc1 (some centres undefined) |  |  |  |  |  | EC50 [13]: 0.19 µM
C=C(C)[C@@H]1CCC(C)=C[C@H]1c1c(O)cc(C2CC2)cc1O | > 0.01 µM | 4.4 µM | 94% |  |  | 
C=C(C)[C@@H]1CCC(C)=C[C@H]1c1c(O)cc(C(=O)CCCC)cc1O |  | 9.9 µM | 82.9% | 4.69 µM | 75.7% | 
C=C(C)[C@@H]1CCC(C)=C[C@H]1c1c(O)cc(CCCCC)c(C(=O)NCCN(C)C)c1O | > 0.01 µM | > 10 µM |  |  |  | 
